Experimental data as given in a melting point compilation (Tetko et al.; mined from patent text by program, amines drawn as free bases though some values may be those of a salt).

SMILES	melting point
O=C1CC(NCc2ccccc2)C(=O)N1Cc1ccccc1 (stereo unspecified)	60 to 63 °C
Cn1nc2ccccc2c1C(=O)NC1CCN(CCc2ccc(F)cc2)C1 (stereo unspecified)	117 to 119 °C
COC(=O)C(C)NC(=O)C1C(C)(C)CCC1(C)C (stereo unspecified)	86.7 °C
CCCCOc1ccc2ccccc2c1-c1c(OCCCC)ccc2ccccc12	85 °C
CC(=O)OCc1cc2c(c3c1CCC3)C(=O)c1ccccc1C2=O	160 to 161 °C
CCN1CCC2(CC1)CN=C(c1cc3cccc(N(C)S(=O)(=O)c4cccs4)c3[nH]1)S2	215 °C
CNC(=O)c1cc(C(=O)O)c(Nc2ccc(I)cc2C)c(F)c1F	254 to 259 °C
Cn1c(=O)n(-c2cc([N+](=O)[O-])c(Cl)cc2F)c(=S)n1C	146 °C
NS(=O)(=O)c1ccc(-c2cn(-c3nc(-c4ccc(C(F)(F)F)cc4)cc(C(F)(F)F)n3)cn2)cc1	292 °C
O=C(O)c1c(-c2ccccc2)c2cc(OCc3ccccc3)ccc2n1Cc1cc2c(cc1Cl)OCO2	213 to 214 °C
CSC(C(N)=O)c1cc(Cl)cc(C(=O)c2ccccc2)c1N (stereo unspecified)	174 °C
COc1cccc(OC)c1-c1cc2cnc(N)nc2nc1N	> 300 °C
O=C(O)CN(C(=O)c1cccc(C(F)(F)F)c1S)C1CCCC1	144 to 146 °C
C[C@H]1CCCN(C(=O)[C@@H]2Cc3ccccc3N2c2nccs2)C1	167 to 169 °C
O=C(O)c1ccc(NCCc2ccc(OCc3ccccc3)cc2)cc1	180 to 185 °C
CC(C)(C)c1cc(O)no1	99 to 101 °C
Oc1ccc(-c2nn(-c3ccc(Br)cc3)c3cc(O)ccc23)c(O)c1	246 °C
CNc1ccc(C(=O)Nc2c(C)cccc2C)cn1	207 to 209 °C
O=C(Nc1ccc2ccc(-c3ccccc3Cl)nc2n1)c1ccccc1	156 °C
CCCCOc1cc(C=O)c([N+](=O)[O-])cc1OCc1ccccc1	94 °C
Cc1cc(C)nc(N(C=S)c2ccccc2)n1	161 to 165 °C
CC(C)(C)OC(=O)N1C[C@@H]2OCc3cnnn3[C@H]2C1	155 to 157 °C
COc1ccc2c(c1)C(=O)CC(C)(C)O2	71 to 73 °C
O=C(O)c1ccc(Cc2n[nH]c3c2c(=O)n(-c2ccccc2)c2ncccc32)cc1	> 320 °C
Cc1ccc2ncnc(N3CCc4ccc(Cl)cc43)c2c1	138 to 141 °C
CCOC(=O)/C=C/c1ccc(OCCOC)c(C)c1OCc1ccc(Cl)cc1Cl	92 to 92.5 °C

SMILES	melting point
CC(C)(C)NC(=O)C1CCC2C3CC=C4C=C(C#N)CCC4(C)C3CCC12C (stereo unspecified)	198 to 200 °C
Cn1nc(N2c3ccccc3C[C@H]2C(=O)O)ccc1=O	245 to 247 °C
CCOC(=O)COc1cc2c(c(Cl)c1Cl)C(=O)C(c1ccccc1)C2 (stereo unspecified)	114 to 115 °C
O=S(=O)(c1ccc2ccc(Br)cc2c1)N(Cc1ccccc1)Cc1ccccc1	127 to 129 °C
CSc1ccc2c(=O)c(SC)cn(C)c2c1	154 to 155 °C
OCC#Cc1cnc(Cl)nc1NC1CCCC1	162 to 163 °C
CCOCN(c1ccccc1CN1CCC(c2ccccc2)OC1=O)S(=O)(=O)C(F)(F)F (stereo unspecified)	116 °C
Cc1cc(C=O)c2ccccc2c1O	160 to 161 °C
Cc1cccc2ncn(C(C)C(O)(Cn3cncn3)c3ccc(F)cc3F)c(=O)c12 (stereo unspecified)	87 to 89 °C
Cc1nnc(-c2ccc3occ(-c4cnn(Cc5ccccn5)c4)c3c2)o1	134 to 135 °C
CC(=O)NC1(c2ccc(CN3CCN(c4ccc(F)cc4)CC3)cc2)CC1	124 to 126 °C
O=c1[nH]c(-c2c[nH]c3ccccc23)nc2ccc(N3CCCC3)cc12	298 °C
O=C1N(Cc2cccc(O)c2)c2ccccc2C12COc1cc3c(cc12)CCO3 (stereo unspecified)	225 to 227 °C
CCCCCCCCOC(=O)C=Cc1ccc(N(C)C)cc1	48 to 49.5 °C
O=C(O)Cc1cc(C(=O)c2ccc(I)c([N+](=O)[O-])c2)sc1-c1ccccc1	100 to 103 °C
C[C@]12CCC(=O)C=C1CC[C@@H]2c1cn[nH]n1	126 to 129 °C
Cc1c(C)c2c(c(C)c1Br)C(c1ccc(C(C)C)cc1)CO2 (stereo unspecified)	86 to 87 °C
Cc1cc(I)cc(C(=O)O)c1N	214 °C
CCCCCCCCCCCCCCCCCCOc1ccc(C(=O)C=Cc2ccc(SC)cc2)cc1	104 °C
CC(C)(O)Cn1cnc2c1c1ccccc1n1nnnc21	246 to 247 °C
NC(=O)Cc1cccc(C(=O)c2ccccc2)c1N	178 to 180 °C
COC(=O)c1cc(NC(=O)c2ccccc2)c2cc(Cc3ccc(F)cc3)cnc2c1O	247 to 249 °C
CCOC(=O)c1cn(C2CC2)c2cc(Br)c(F)cc2c1=O	251 to 253 °C
O=C1COc2c1ccc1ccccc21	191 to 192 °C
COC(=O)Nc1nc2ccccc2n1C(=O)NC1CC(C)(C)CC(C)(N(C)C(=O)n2c(NC(=O)OC)nc3ccccc32)C1 (stereo unspecified)	82 to 83 °C
Cc1[nH]n(C2CCCCC2)c2nc(-c3ccncc3)nc(=O)c1-2	292 to 293 °C

SMILES	melting point
COc1ccc(-c2cc(C(=O)NCc3ccccn3)c(=O)n(C)n2)cc1	122 to 123 °C
CC(=O)c1ccc(NC(=O)NCC2(c3ccccc3)CCCCC2)cc1	164 to 165 °C
O=C1NCC(Cc2ccccc2F)O1 (stereo unspecified)	113 to 114 °C
O=C(NC1CCCCC1)N1CCC(c2cn(C(=O)NC3CCCCC3)cn2)CC1	166 °C
COc1cc(C(C)O)c([N+](=O)[O-])cc1OC (stereo unspecified)	107 to 108 °C
CCCNC1=NS(=O)(=O)c2cc(Cl)sc2N1	246 to 247 °C
CCOC(=O)c1ccc(OCCC2CN(c3ccc(SC)nn3)CCO2)cc1 (stereo unspecified)	111 °C
CC(C)Cn1c(=O)n(C)c(=O)c2c(Sc3ccc(N)cc3)c(Cc3cccc4ccccc34)sc21	177 to 178 °C
CCCCC(=O)Oc1cccc(NC(=O)CC(C)=O)c1	65 °C
CCOC(=O)c1nnc2ccc(NC(=O)OCc3ccccc3)cc2c1O	250 to 252 °C
Cc1cc(-c2cc(CBr)c(=O)n(Cc3ccccc3Cl)n2)ccc1F	113 to 115 °C
NC(=O)NCC#CCN1CCCC1	71 to 73 °C
C#Cc1cc(CC)c(-c2c(O)c(C)nn(C)c2=O)c(CC)c1	216 to 217 °C
CNc1c(OC)cc(C(=O)OC)cc1OC	49 to 51 °C
COC(=O)COc1cc2c(c3c1c(C(=O)C(N)=O)c(C)n3Cc1ccc(F)cc1)CCC2	134 to 136 °C
CCN(Cc1ccccc1OCc1ccccc1)c1ccc(C(=O)O)c(F)c1	154 °C
CCC(O)(c1ccc(O)cc1)c1cccc(C(F)(F)F)c1 (stereo unspecified)	102 to 103 °C
CO[C@H]1c2ccn3c(C)c(C)nc3c2N[C@H](c2ccccc2)[C@H]1O	108 to 110 °C
CC(=O)c1cn(S(=O)(=O)c2ccccc2)c2nccc(OCC3CCCCC3)c12	138 to 140 °C
N=C(Nc1ccc(CNC=Nc2cccs2)cc1)c1cccs1	200 to 201 °C
CC(C(N)=O)c1ccc2c(c1)C(=O)Cc1ccccc1S2 (stereo unspecified)	190 to 192 °C
CC(C)=NOc1nc(C(F)(F)F)cc(=O)n1-c1cc(Oc2ccccc2[N+](=O)[O-])c(Cl)cc1F	156 to 159 °C
Cc1cccc(C2(O)CCN(CC3CCc4ccccc4C3=O)CC2)c1 (stereo unspecified)	157 to 159 °C
CCOC(=O)c1cc(Cl)n2nc(C)nc2n1	134 to 136 °C
Nc1ccnc(/C=C/c2ccccc2)c1	164 to 165 °C
Cc1ccc(-c2nc(CCl)cs2)s1	89 to 90 °C

SMILES	melting point
O=C(CC1CCN(CCCn2c(=O)[nH]c3ccccc32)CC1)c1ccc(F)cc1	208 °C
C/C(=C\C=C\C#N)c1ccc(OCc2nc(-c3ccccc3)oc2C)cc1	134 to 136 °C
CCn1cc(C(=O)O)c(=O)c2cc(F)c(-c3csc(CNC)n3)c(O)c21	242 to 246 °C
COc1ccc(N2CCN(c3c(C)c(C)c4c(c3C)C(C3CCCCC3)C(C)(C)O4)CC2)cc1 (stereo unspecified)	119 to 121 °C
O=[N+]([O-])c1cc(Sc2ccc(Cl)cc2)[nH]c1-c1ccc(Cl)cc1	195 to 197 °C
CCN1CCc2cc(OC)c(OC)cc2C1C1CC(C(=O)O)CCC12c1cc(OC)c(OC)cc1CCN2CC (stereo unspecified)	124 to 126 °C
COc1nc(OC)nc(-n2cnc(S(C)(=O)=O)n2)n1	170 °C
COC(=O)c1cc(NC(=O)OC(C)(C)C)c([N+](=O)[O-])cc1C#Cc1ccccc1	173 °C
CCCCS(=O)(=O)Nc1cccc(OCc2ccc3ccccc3n2)c1	105 to 106 °C
Clc1ccc(Nc2nnc(Cc3ccncc3)c3ccncc23)cc1	220 to 221 °C
CC(=O)Nc1cc(C(C)(C)CC(C)(C)C)ccc1O	176 to 177 °C
COC(=O)c1cnc2c(O)cccc2c1	140 °C
Nc1cc(Oc2ccc3c(C(=O)Nc4ccc(F)c(C(F)(F)F)c4)nccc3c2)ncn1	219 to 222 °C
CC(C)(CO)NS(=O)(=O)c1cccc(-c2cc(-c3nc(-c4ccc(C(F)(F)F)cc4)cc(C(F)(F)F)n3)ccn2)c1	221 °C
CCN(CC)CCN(CCN1CCCCC1)c1ccc(-c2nc3cc(Cl)c(Cl)cc3[nH]2)cc1	160 to 163 °C
CN=C(NC#N)Oc1ccccc1	132 to 133 °C
COc1cc(OC)nc(NC(=O)NS(=O)(=O)Nn2cccc2C(=O)N(C)C)n1	150 to 152 °C
CC(C)CC(NC(=O)C(Cc1c[nH]cn1)NC(=O)C(CC(=O)NCCc1ccccc1)Cc1cccc2ccccc12)C(O)CNCc1ccccc1 (mixture of isomers)	108 to 113 °C
CN(c1cccc2cc(C3=NCC(CCO)S3)[nH]c12)S(=O)(=O)c1cccs1 (stereo unspecified)	168 to 169 °C
Cc1ccc(-c2ccc(C(=O)Nc3cc4ncc(CN5CCCC5)cc4cc3F)c(F)c2)cc1	179 to 181 °C
COc1ccc(C2(C#Cc3cnc(NC(C)=O)nc3)CCC(=O)CC2)cc1OC1CCCC1	170 to 171 °C
O=C(c1cccc(O)c1)c1nn(C2CCCC2)c2c(C(F)(F)F)cccc12	152 °C
CC1(C(=O)c2c[nH]c3ncc(Br)nc23)CCCCCC1	198 °C
